# Assay results published in patent US20070049564A1 (Wyeth, priority 2005, published 2007).
# Tests used:
# Test in all cases: MIC, broth microdilution
# E. faecalis GC 2242 = details: Enterococcus faecalis
# E. coli GC 4559 = details: Escherichia coli
# E. coli GC 2235 = details: Escherichia coli
# c. albicans GC 3066 = test system: c. albicans GC 3066
# S. pneumoniae* GC 4465 = details: Streptococcus pneumoniae
# E. faecalis GC 4555 = details: Enterococcus faecalis
# Description: (§1) Antimicrobial susceptibility testing. The in vitro activities of the antibiotics are determined by the broth microdilution method as recommended by the National Committee for Clinical Laboratory Standards (NCCLS) (1). Mueller-Hinton II broth (MHBII)(BBL Cockeysville, Md.) is the medium employed in the testing procedures. Microtiter plates containing serial dilutions of each antimicrobial agent are inoculated with each organism to yield the appropriate density (10^5 CFU/ml) in a 100 μl final volume. The plates are incubated for 18-22 hours at 35° C. in ambient air.
# (§2) Representative compounds were first incubated in mouse serum for an hour prior to the in vitro testing against a panel of selected gram-positive and gram-negative bacteria strains. All compounds were also pre-incubated in water for an hour prior to testing as control. Representative compounds of Formula I were incubated in human serum prior to MIC determination.
# E. coli GC 6465 = details: Escherichia coli
# S. pneumoniae+ GC 4465 = details: Streptococcus pneumoniae
# S. epidermidis GC 4935 = details: Staphylococcus epidermidis
# S. aureus GC 6467 = details: Staphylococcus aureus
# S. aureus GC 4536 = details: Staphylococcus aureus
# Description: as §1, §2
# S. aureus GC 1079 = details: Staphylococcus aureus
# E. coli GC 2272 = details: Escherichia coli
# E. coli GC 4560 = details: Escherichia coli
# S. aureus GC 1131 = details: Staphylococcus aureus
# E. faecalis GC 2267 = details: Enterococcus faecalis
# S. typhimurium GC 2172 = details: Salmonella enterica, TYPHIMURIUM
# S. agalactiae GC 4564 = details: Streptococcus agalactiae
# Description: as §1, §2
# E. coli GC 1073 = details: Escherichia coli
# [1] = GC2242, pre-incubation in human serum
# [2] = GC2242, pre-incubation in mouse serum
# [3] = GC2242, pre-incubation in water
# [4] = GC4559, pre-incubation in human serum
# [5] = GC4559, pre-incubation in mouse serum
# [6] = GC4559, pre-incubation in water
# [7] = GC2235, pre-incubation in human serum
# [8] = GC2235, pre-incubation in mouse serum
# [9] = GC2235, pre-incubation in water
# [10] = GC4555, pre-incubation in human serum
# [11] = GC4555, pre-incubation in mouse serum
# [12] = GC4555, pre-incubation in water
# [13] = GC6465, pre-incubation in human serum
# [14] = GC6465, pre-incubation in mouse serum
# [15] = GC6465, pre-incubation in water
# [16] = GC4935, pre-incubation in human serum
# [17] = GC4935, pre-incubation in mouse serum
# [18] = GC4935, pre-incubation in water
# [19] = GC6467, pre-incubation in human serum
# [20] = GC6467, pre-incubation in mouse serum
# [21] = GC6467, pre-incubation in water
# [22] = GC4536, pre-incubation in human serum
# [23] = GC4536, pre-incubation in mouse serum
# [24] = GC4536, pre-incubation in water
# [25] = GC1079, pre-incubation in human serum
# [26] = GC1079, pre-incubation in mouse serum
# [27] = GC1079, pre-incubation in water
# [28] = GC2272, pre-incubation in human serum
# [29] = GC2272, pre-incubation in mouse serum
# [30] = GC2272, pre-incubation in water
# [31] = GC4560, pre-incubation in human serum
# [32] = GC4560, pre-incubation in mouse serum
# [33] = GC4560, pre-incubation in water
# [34] = GC1131, pre-incubation in human serum
# [35] = GC1131, pre-incubation in mouse serum
# [36] = GC1131, pre-incubation in water
# [37] = GC2267, pre-incubation in human serum
# [38] = GC2267, pre-incubation in mouse serum
# [39] = GC2267, pre-incubation in water
# [40] = GC4564, pre-incubation in human serum
# [41] = GC4564, pre-incubation in mouse serum
# [42] = GC4564, pre-incubation in water
# [43] = GC1073, pre-incubation in human serum
# [44] = GC1073, pre-incubation in mouse serum
# [45] = GC1073, pre-incubation in water
smiles,measurement,setting,value
"CN(C)c1cc(NC(=O)CN(C(=O)OCOC(=O)C2CCC2)C(C)(C)C)c(O)c2c1C[C@H]1C[C@H]3[C@H](N(C)C)C(O)=C(C(N)=O)C(=O)[C@@]3(O)C(O)=C1C2=O [Example 62, ({[(2-{[(5aR,6aS,7S,10aS)-9-(aminocarbonyl)-4,7-bis(dimethylamino)-1,8,10a,11-tetrahydroxy-10,12-dioxo-5,5a,6,6a,7,10,10a,12-octahydrotetracen-2-yl]amino}-2-oxoethyl)(tert-butyl)amino]carbonyl}oxy)methyl cyclobutanecarboxylate]",MIC,E. faecalis GC 2242; [1],0.5 µg/mL
same,MIC,E. faecalis GC 2242; [2],0.5 µg/mL
same,MIC,E. faecalis GC 2242; [3],0.5 µg/mL
same,MIC,E. coli GC 4559; [4],8 µg/mL
same,MIC,E. coli GC 4559; [5],1 µg/mL
same,MIC,E. coli GC 4559; [6],16 µg/mL
same,MIC,E. coli GC 2235; [7],2 µg/mL
same,MIC,E. coli GC 2235; [8],0.5 µg/mL
same,MIC,E. coli GC 2235; [9],4 µg/mL
same,MIC,"c. albicans GC 3066; Candida albicans, GC3066",> 64 µg/mL
same,MIC,c. albicans GC 3066; pre-incubation in human serum,>64 UG/ML
same,MIC,c. albicans GC 3066; pre-incubation in mouse serum,>64 UG/ML
same,MIC,S. pneumoniae* GC 4465; pre-incubation in human serum,0.12 µg/mL
same,MIC,S. pneumoniae* GC 4465; pre-incubation in mouse serum,0.12 µg/mL
same,MIC,S. pneumoniae* GC 4465; pre-incubation in water,0.12 µg/mL
same,MIC,E. faecalis GC 4555; [10],0.5 µg/mL
same,MIC,E. faecalis GC 4555; [11],1 µg/mL
same,MIC,E. faecalis GC 4555; [12],1 µg/mL
same,MIC,E. coli GC 6465; [13],8 µg/mL
same,MIC,E. coli GC 6465; [14],2 µg/mL
same,MIC,E. coli GC 6465; [15],> 64 µg/mL
same,MIC,S. pneumoniae+ GC 4465; pre-incubation in human serum,0.5 µg/mL
same,MIC,S. pneumoniae+ GC 4465; pre-incubation in mouse serum,1 µg/mL
same,MIC,S. pneumoniae+ GC 4465; pre-incubation in water,0.5 µg/mL
same,MIC,S. epidermidis GC 4935; [16],0.5 µg/mL
same,MIC,S. epidermidis GC 4935; [17],0.5 µg/mL
same,MIC,S. epidermidis GC 4935; [18],0.5 µg/mL
same,MIC,S. aureus GC 6467; [19],0.5 µg/mL
same,MIC,S. aureus GC 6467; [20],1 µg/mL
same,MIC,S. aureus GC 6467; [21],0.5 µg/mL
same,MIC,S. aureus GC 4536; [22],0.5 µg/mL
same,MIC,S. aureus GC 4536; [23],0.5 µg/mL
same,MIC,S. aureus GC 4536; [24],0.5 µg/mL
same,MIC,S. aureus GC 1079; [25],0.5 µg/mL
same,MIC,S. aureus GC 1079; [26],1 µg/mL
same,MIC,S. aureus GC 1079; [27],0.5 µg/mL
same,MIC,E. coli GC 2272; [28],4 µg/mL
same,MIC,E. coli GC 2272; [29],1 µg/mL
same,MIC,E. coli GC 2272; [30],8 µg/mL
same,MIC,E. coli GC 4560; [31],0.5 µg/mL
same,MIC,E. coli GC 4560; [32],0.25 µg/mL
same,MIC,E. coli GC 4560; [33],0.5 µg/mL
same,MIC,S. aureus GC 1131; [34],0.5 µg/mL
same,MIC,S. aureus GC 1131; [35],0.5 µg/mL
same,MIC,S. aureus GC 1131; [36],0.5 µg/mL
same,MIC,E. faecalis GC 2267; [37],0.5 µg/mL
same,MIC,E. faecalis GC 2267; [38],0.5 µg/mL
same,MIC,E. faecalis GC 2267; [39],1 µg/mL
same,MIC,S. typhimurium GC 2172; pre-incubation in human serum,16 µg/mL
same,MIC,S. typhimurium GC 2172; pre-incubation in mouse serum,2 µg/mL
same,MIC,S. typhimurium GC 2172; pre-incubation in water,> 64 µg/mL
same,MIC,S. agalactiae GC 4564; [40],0.12 µg/mL
same,MIC,S. agalactiae GC 4564; [41],0.25 µg/mL
same,MIC,S. agalactiae GC 4564; [42],0.25 µg/mL
same,MIC,E. coli GC 1073; [43],4 µg/mL
same,MIC,E. coli GC 1073; [44],0.5 µg/mL
same,MIC,E. coli GC 1073; [45],16 µg/mL
"CN(C)c1cc(NC(=O)CN(C(=O)OCOC(=O)CCC2CCCCC2)C(C)(C)C)c(O)c2c1C[C@H]1C[C@H]3[C@H](N(C)C)C(O)=C(C(N)=O)C(=O)[C@@]3(O)C(O)=C1C2=O [Example 63, ({[(2-{[(5aR,6aS,7S,10aS)-9-(aminocarbonyl)-4,7-bis(dimethylamino)-1,8,10a,11-tetrahydroxy-10,12-dioxo-5,5a,6,6a,7,10,10a,12-octahydrotetracen-2-yl]amino}-2-oxoethyl)(tert-butyl)amino]carbonyl}oxy)methyl 3-cyclohexylpropanoate]",MIC,E. faecalis GC 2242; [1],1 µg/mL
same,MIC,E. faecalis GC 2242; [2],1 µg/mL
same,MIC,E. faecalis GC 2242; [3],1 µg/mL
same,MIC,E. coli GC 4559; [4],> 64 µg/mL
same,MIC,E. coli GC 4559; [5],2 µg/mL
same,MIC,E. coli GC 4559; [6],> 64 µg/mL
same,MIC,E. coli GC 2235; [7],> 64 µg/mL
same,MIC,E. coli GC 2235; [8],0.5 µg/mL
same,MIC,E. coli GC 2235; [9],> 64 µg/mL
same,MIC,"c. albicans GC 3066; Candida albicans, GC3066",> 64 µg/mL
same,MIC,c. albicans GC 3066; pre-incubation in human serum,>64 UG/ML
same,MIC,c. albicans GC 3066; pre-incubation in mouse serum,>64 UG/ML
same,MIC,S. pneumoniae* GC 4465; pre-incubation in human serum,0.12 µg/mL
same,MIC,S. pneumoniae* GC 4465; pre-incubation in mouse serum,0.12 µg/mL
same,MIC,S. pneumoniae* GC 4465; pre-incubation in water,0.12 µg/mL
same,MIC,E. faecalis GC 4555; [10],2 µg/mL
same,MIC,E. faecalis GC 4555; [11],1 µg/mL
same,MIC,E. faecalis GC 4555; [12],4 µg/mL
same,MIC,E. coli GC 6465; [13],> 64 µg/mL
same,MIC,E. coli GC 6465; [14],2 µg/mL
same,MIC,E. coli GC 6465; [15],> 64 µg/mL
same,MIC,S. pneumoniae+ GC 4465; pre-incubation in human serum,0.5 µg/mL
same,MIC,S. pneumoniae+ GC 4465; pre-incubation in mouse serum,0.5 µg/mL
same,MIC,S. pneumoniae+ GC 4465; pre-incubation in water,0.5 µg/mL
same,MIC,S. epidermidis GC 4935; [16],2 µg/mL
same,MIC,S. epidermidis GC 4935; [17],2 µg/mL
same,MIC,S. epidermidis GC 4935; [18],4 µg/mL
same,MIC,S. aureus GC 6467; [19],4 µg/mL
same,MIC,S. aureus GC 6467; [20],2 µg/mL
same,MIC,S. aureus GC 6467; [21],16 µg/mL
same,MIC,S. aureus GC 4536; [22],1 µg/mL
same,MIC,S. aureus GC 4536; [23],1 µg/mL
same,MIC,S. aureus GC 4536; [24],4 µg/mL
same,MIC,S. aureus GC 1079; [25],2 µg/mL
same,MIC,S. aureus GC 1079; [26],1 µg/mL
same,MIC,S. aureus GC 1079; [27],8 µg/mL
same,MIC,E. coli GC 2272; [28],> 64 µg/mL
same,MIC,E. coli GC 2272; [29],1 µg/mL
same,MIC,E. coli GC 2272; [30],> 64 µg/mL
same,MIC,E. coli GC 4560; [31],2 µg/mL
same,MIC,E. coli GC 4560; [32],0.5 µg/mL
same,MIC,E. coli GC 4560; [33],16 µg/mL
same,MIC,S. aureus GC 1131; [34],1 µg/mL
same,MIC,S. aureus GC 1131; [35],1 µg/mL
same,MIC,S. aureus GC 1131; [36],4 µg/mL
same,MIC,E. faecalis GC 2267; [37],2 µg/mL
same,MIC,E. faecalis GC 2267; [38],1 µg/mL
same,MIC,E. faecalis GC 2267; [39],16 µg/mL
same,MIC,S. typhimurium GC 2172; pre-incubation in human serum,> 64 µg/mL
same,MIC,S. typhimurium GC 2172; pre-incubation in mouse serum,2 µg/mL
same,MIC,S. typhimurium GC 2172; pre-incubation in water,> 64 µg/mL
same,MIC,S. agalactiae GC 4564; [40],0.25 µg/mL
same,MIC,S. agalactiae GC 4564; [41],0.25 µg/mL
same,MIC,S. agalactiae GC 4564; [42],0.25 µg/mL
same,MIC,E. coli GC 1073; [43],> 64 µg/mL
same,MIC,E. coli GC 1073; [44],2 µg/mL
same,MIC,E. coli GC 1073; [45],> 64 µg/mL
